# Experimental data published in patent US10385022B2, “3-amino-pyridines as GPBAR1 agonists” (HOFFMANN-LA ROCHE INC., priority 2011, dated 2019).
# Counter-ions that a name gives are not always drawn.
# Molecular target: human GPBAR1 receptor (Homo sapiens (Human), UniProt Q8TDU6)
# Assay: functional cAMP assay in CHO-dhfr(minus) cells expressing human GPBAR1 receptors
# Assay type: cell-based
# Settings: CHO-dhfr(minus) cells expressing human GPBAR1, 30 min at 30° C.
# Summary of the method: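 Functional cAMP responses in a human GPBAR1-transfected CHO-dhfr- clone, picked using lithocholic acid as agonist, gave the EC50 values. Parallel testing in untransfected CHO cells served as a specificity control.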
# Sequence of human GPBAR1 receptor (Q8TDU6 whole entry): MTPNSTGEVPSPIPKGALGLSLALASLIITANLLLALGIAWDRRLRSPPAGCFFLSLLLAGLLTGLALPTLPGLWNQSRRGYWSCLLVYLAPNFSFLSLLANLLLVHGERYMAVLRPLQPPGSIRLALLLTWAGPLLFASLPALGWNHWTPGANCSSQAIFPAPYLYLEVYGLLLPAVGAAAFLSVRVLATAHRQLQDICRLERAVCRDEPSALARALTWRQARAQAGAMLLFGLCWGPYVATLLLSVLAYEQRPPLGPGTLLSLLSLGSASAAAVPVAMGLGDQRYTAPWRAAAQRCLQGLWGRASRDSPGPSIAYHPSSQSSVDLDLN
row,EC50 [nM],SMILES
1,2960,"COc1cc(F)ccc1-c1ccncc1N(Cc1nccn1C)C(=O)c1cc(C(F)(F)F)cc(S(C)(=O)=O)c1 [Example 250, N-[4-(4-Fluoro-2-methoxy-phenyl)-pyridin-3-yl]-3-methanesulfonyl-N-(1-methyl-1H-imidazol-2-ylmethyl)-5-trifluoromethyl-benzamide]"
2,69,"COc1cc(F)c(F)cc1-c1ccncc1N(CC(F)(F)F)C(=O)c1cc(C(F)(F)F)nc(C(F)(F)F)c1 [Example 146, N-[4-(4,5-Difluoro-2-methoxy-phenyl)-pyridin-3-yl]-N-(2,2,2-trifluoro-ethyl)-2,6-bis-trifluoromethyl-isonicotinamide]"
3,76,"COc1cc(F)ccc1-c1ccncc1N(C)C(=O)c1cc(F)cc(C(F)(F)F)c1 [Example 129, 3-Fluoro-N-[4-(4-fluoro-2-methoxy-phenyl)-pyridin-3-yl]-N-methyl-5-trifluoromethyl-benzamide]"
4,23,"COc1ccc(F)c(-c2ccncc2N(C)C(=O)c2cc(C(F)(F)F)cc(C(F)(F)F)c2)c1 [Example 63, N-[4-(2-Fluoro-5-methoxy-phenyl)-pyridin-3-yl]-N-methyl-3,5-bis-trifluoromethyl-benzamide]"
5,112,"Cc1ccccc1-c1ccncc1N(C)C(=O)c1ccc(F)c(C(F)(F)F)c1 [Example 5, 4-Fluoro-N-methyl-N-(4-o-tolyl-pyridin-3-yl)-5-trifluoromethyl-benzamide]"
6,1110,"Cc1cc(-c2ccccc2OC2COC2)c(N(C)C(=O)c2cc(C(F)(F)F)cc(S(C)(=O)=O)c2)cn1 [Example 318, 3-Methanesulfonyl-N-methyl-N-{6-methyl-4-[2-(oxetan-3-yloxy)-phenyl]-pyridin-3-yl}-5-trifluoromethyl-benzamide]"
7,39,"COc1cc(F)c(F)cc1-c1ccncc1N(CC(F)F)C(=O)c1cc(C(F)(F)F)nc(C(F)(F)F)c1 [Example 154, N-(2,2-Difluoro-ethyl)-N-[4-(4,5-difluoro-2-methoxy-phenyl)-pyridin-3-yl]-2,6-bis-trifluoromethyl-isonicotinamide]"
8,89,"Cc1ccccc1-c1ccncc1N(C)C(=O)c1cc(C(F)(F)F)cc(C(F)(F)F)n1 [Example 190, 4,6-Bis-trifluoromethyl-pyridine-2-carboxylic acid methyl-(4-o-tolyl-pyridin-3-yl)-amide]"
9,119,"Cc1ccc(F)c(-c2ccncc2N(C)C(=O)c2cc(C(F)(F)F)cc(C(F)(F)F)c2)c1 [Example 42, N-[4-(2-Fluoro-5-methyl-phenyl)-pyridin-3-yl]-N-methyl-3,5-bis-trifluoromethyl-benzamide]"
10,105,"COc1cc(F)ccc1-c1ccncc1N(CCS(C)(=O)=O)C(=O)c1cc(C(F)(F)F)cc(C(F)(F)F)c1 [Example 192, N-[4-(4-Fluoro-2-methoxy-phenyl)-pyridin-3-yl]-N-(2-methanesulfonyl-ethyl)-3,5-bis-tri fluoro methyl-benzamide]"
11,38,"Cc1cc(F)ccc1-c1ccncc1N(C)C(=O)c1cc(C(F)(F)F)cc(C(F)(F)F)c1 [Example 23, N-[4-(4-Fluoro-2-methyl-phenyl)-pyridin-3-yl]-N-methyl-3,5-bis-trifluoromethyl-benzamide]"
12,281,"COc1ncccc1-c1ccncc1N(CCS(C)(=O)=O)C(=O)c1cc(C(F)(F)F)nc(C(F)(F)F)c1 [Example 160, N-(2-Methanesulfonyl-ethyl)-N-(2-methoxy-[3,4′]bipyridinyl-3′-yl)-2,6-bis-trifluoromethyl-isonicotinamide]"
13,92,"COc1cc(C(=O)N(C)c2cnccc2-c2ccc(F)cc2OC)cc(Cl)n1 [Example 198, 2-Chloro-N-[4-(4-fluoro-2-methoxy-phenyl)-pyridin-3-yl]-6-methoxy-N-methyl-isonicotinamide]"
14,11,"COc1ccccc1-c1ccncc1N(C)C(=O)c1cc(C(F)(F)F)cc(C(F)(F)F)c1 [Example 29, N-[4-(2-Methoxy-phenyl)-pyridin-3-yl]-N-methyl-3,5-bis-trifluoromethyl-benzamide]"
15,35,"COc1cc(F)ccc1-c1ccncc1N(Cc1ncco1)C(=O)c1cc(C(F)(F)F)cc(S(C)(=O)=O)c1 [Example 22, N-[4-(4-Fluoro-2-methoxy-phenyl)-pyridin-3-yl]-3-methanesulfonyl-N-oxazol-2-ylmethyl-5-trifluoromethyl-benzamide]"
16,1970,"COc1cc(-c2ccncc2N(C)C(=O)c2cc(C(F)(F)F)cc(C(F)(F)F)c2)c(OC)nn1 [Example 54, N-[4-(3,6-Dimethoxy-pyridazin-4-yl)-pyridin-3-yl]-N-methyl-3,5-bis-trifluoromethyl-benzamide]"
17,2410,"Cc1cc(-c2cc(F)ccc2C)c(N(C)C(=O)c2cc(C(F)(F)F)cc(S(C)(=O)=O)c2)cn1 [Example 264, N-[4-(5-Fluoro-2-methyl-phenyl)-6-methyl-pyridin-3-yl]-3-methanesulfonyl-N-methyl-5-trifluoromethyl-benzamide]"

row,EC50 [nM],SMILES
1,1150,"CS(=O)(=O)c1cc(C(=O)N(CCO)c2cnccc2-c2ccccc2F)cc(C(F)(F)F)c1 [Example 244, N-[4-(2-Fluoro-phenyl)-pyridin-3-yl]-N-(2-hydroxy-ethyl)-3-methanesulfonyl-5-trifluoromethyl-benzamide]"
2,27,"COC(=O)CN(C(=O)c1cc(C(F)(F)F)nc(C(F)(F)F)c1)c1cnccc1-c1cccnc1OC [Example 182, Methyl 2-(N-(2-methoxy-3,4′-bipyridin-3′-yl)-2,6-bis(trifluoromethyl)isonicotinamido)acetate]"
3,72,"CN(C(=O)c1cc(C(F)(F)F)cc(C(F)(F)F)c1)c1cnccc1-c1cc(F)ccc1F [Example 61, N-[4-(2,5-Difluoro-phenyl)-pyridin-3-yl]-N-methyl-3,5-bis-trifluoromethyl-benzamide]"
4,38,"COc1cc(F)c(F)cc1-c1ccncc1N(C)C(=O)c1cc(C(F)(F)F)cc(C(F)(F)F)c1 [Example 39, N-[4-(4,5-Difluoro-2-methoxy-phenyl)-pyridin-3-yl]-N-methyl-3,5-bis-trifluoromethyl-benzamide]"
5,2160,"Cc1ccccc1-c1ccncc1N(C)C(=O)c1ccc(C(F)(F)F)c(F)c1 [Example 94, 3-Fluoro-N-methyl-N-(4-o-tolyl-pyridin-3-yl)-4-trifluoromethyl-benzamide]"
6,26,"COc1ccc(F)cc1-c1ccncc1N(C)C(=O)c1cc(C(F)(F)F)cc(C(F)(F)F)c1 [Example 58, N-[4-(5-Fluoro-2-methoxy-phenyl)-pyridin-3-yl]-N-methyl-3,5-bis-trifluoromethyl-benzamide]"
7,46,"COc1cccc(F)c1-c1ccncc1N(CC(F)(F)F)C(=O)c1cc(C(F)(F)F)cc(S(C)(=O)=O)c1 [Example 223, N-[4-(2-Fluoro-6-methoxy-phenyl)-pyridin-3-yl]-3-methanesulfonyl-N-(2,2,2-trifluoro-ethyl)-5-trifluoromethyl-benzamide]"
8,558,"Cc1ccccc1-c1ccncc1N(C)C(=O)c1cc(N2CCOCC2)cc(C(F)(F)F)c1 [Example 152, N-Methyl-3-morpholin-4-yl-N-(4-o-tolyl-pyridin-3-yl)-5-trifluoromethyl-benzamide]"
9,88,"COc1cc(F)ccc1-c1ccncc1N(C)C(=O)c1cc(C(F)(F)F)cc(S(=O)(=O)C2CN(S(N)(=O)=O)C2)c1 [Example 292, N-[4-(4-Fluoro-2-methoxy-phenyl)-pyridin-3-yl]-N-methyl-3-(1-sulfamoyl-azetidine-3-sulfonyl)-5-trifluoromethyl-benzamide]"
10,377,"COc1cnccc1-c1ccncc1N(C)C(=O)c1cc(C(F)(F)F)cc(C(F)(F)F)c1 [Example 69, N-(3′-Methoxy-[4,4′]bipyridinyl-3-yl)-N-methyl-3,5-bis-trifluoromethyl-benzamide]"
11,166,"COc1cc(F)c(F)cc1-c1ccncc1N(C)C(=O)c1cc(C(F)(F)F)cc(S(C)(=O)=O)c1 [Example 137, N-[4-(4,5-Difluoro-2-methoxy-phenyl)-pyridin-3-yl]-3-methanesulfonyl-N-methyl-5-trifluoromethyl-benzamide]"
12,362,"CN(C(=O)c1cc(C(F)(F)F)cc(C(F)(F)F)c1)c1cnccc1-c1ccccc1C#N [Example 36, N-[4-(2-Cyano-phenyl)-pyridin-3-yl]-N-methyl-3,5-bis-trifluoromethyl-benzamide]"
13,1330,"COc1cc(F)c(F)cc1-c1ccncc1N(CC(F)(F)F)C(=O)c1cc(F)cc(C(F)(F)F)c1 [Example 132, N-[4-(4,5-Difluoro-2-methoxy-phenyl)-pyridin-3-yl]-3-fluoro-N-(2,2,2-trifluoro-ethyl)-5-trifluoromethyl-benzamide]"
14,115,"COc1cc(F)ccc1-c1cc(C)ncc1N(C)C(=O)c1cc(C(F)(F)F)cc(S(=O)(=O)C2COC2)c1 [Example 314, N-[4-(4-Fluoro-2-methoxy-phenyl)-6-methyl-pyridin-3-yl]-N-methyl-3-(oxctane-3-sulfonyl)-5-trifluoromethyl-benzamide]"
15,388,"CC1CCCCN1c1ccncc1N(C)C(=O)c1cc(Cl)cc(Cl)c1 (centres unmarked) [Example 21, 3,5-Dichloro-N-methyl-N-(2-methyl-3,4,5,6-tetrahydro-2H-[1,4′]bipyridinyl-3′-yl)-benzamide hydrochloride salt]"
16,619,"CCC(=O)CN(C(=O)c1cc(C(F)(F)F)cc(S(C)(=O)=O)c1)c1cnccc1-c1ccc(F)cc1OC [Example 204, N-[4-(4-Fluoro-2-methoxy-phenyl)-pyridin-3-yl]-3-methanesulfonyl-N-(2-oxo-butyl)-5-trifluoromethyl-benzamide]"
17,268,"COc1cc(F)ccc1-c1ccncc1N(C)C(=O)c1cc(C(F)(F)F)cc(S(=O)(=O)C2CNC2)c1 [Example 280, 3-(Azctidine-3-sulfonyl)-N-[4-(4-fluoro-2-methoxy-phenyl)-pyridin-3-yl]-N-methyl-5-trifluoromethyl-benzamide]"

row,SMILES,EC50 [nM]
1,"CN(C(=O)c1cc(C(F)(F)F)cc(S(C)(=O)=O)c1)c1cnccc1-c1ccccc1OC1CCC1 [Example 277, N-[4-(2-Cyclobutoxy-phenyl)-pyridin-3-yl]-3-methanesulfonyl-N-methyl-5-trifluoromethyl-benzamide]",8
